The text below walks through data of patent US11123337B2, “4-methylsulfonyl-substituted piperidine urea compounds” (MYOKARDIA, INC., priority 2015, dated 2021).

The structures appear in SMILES notation.

Sequence of bovine cardiac myosin (Q9BE39 whole entry): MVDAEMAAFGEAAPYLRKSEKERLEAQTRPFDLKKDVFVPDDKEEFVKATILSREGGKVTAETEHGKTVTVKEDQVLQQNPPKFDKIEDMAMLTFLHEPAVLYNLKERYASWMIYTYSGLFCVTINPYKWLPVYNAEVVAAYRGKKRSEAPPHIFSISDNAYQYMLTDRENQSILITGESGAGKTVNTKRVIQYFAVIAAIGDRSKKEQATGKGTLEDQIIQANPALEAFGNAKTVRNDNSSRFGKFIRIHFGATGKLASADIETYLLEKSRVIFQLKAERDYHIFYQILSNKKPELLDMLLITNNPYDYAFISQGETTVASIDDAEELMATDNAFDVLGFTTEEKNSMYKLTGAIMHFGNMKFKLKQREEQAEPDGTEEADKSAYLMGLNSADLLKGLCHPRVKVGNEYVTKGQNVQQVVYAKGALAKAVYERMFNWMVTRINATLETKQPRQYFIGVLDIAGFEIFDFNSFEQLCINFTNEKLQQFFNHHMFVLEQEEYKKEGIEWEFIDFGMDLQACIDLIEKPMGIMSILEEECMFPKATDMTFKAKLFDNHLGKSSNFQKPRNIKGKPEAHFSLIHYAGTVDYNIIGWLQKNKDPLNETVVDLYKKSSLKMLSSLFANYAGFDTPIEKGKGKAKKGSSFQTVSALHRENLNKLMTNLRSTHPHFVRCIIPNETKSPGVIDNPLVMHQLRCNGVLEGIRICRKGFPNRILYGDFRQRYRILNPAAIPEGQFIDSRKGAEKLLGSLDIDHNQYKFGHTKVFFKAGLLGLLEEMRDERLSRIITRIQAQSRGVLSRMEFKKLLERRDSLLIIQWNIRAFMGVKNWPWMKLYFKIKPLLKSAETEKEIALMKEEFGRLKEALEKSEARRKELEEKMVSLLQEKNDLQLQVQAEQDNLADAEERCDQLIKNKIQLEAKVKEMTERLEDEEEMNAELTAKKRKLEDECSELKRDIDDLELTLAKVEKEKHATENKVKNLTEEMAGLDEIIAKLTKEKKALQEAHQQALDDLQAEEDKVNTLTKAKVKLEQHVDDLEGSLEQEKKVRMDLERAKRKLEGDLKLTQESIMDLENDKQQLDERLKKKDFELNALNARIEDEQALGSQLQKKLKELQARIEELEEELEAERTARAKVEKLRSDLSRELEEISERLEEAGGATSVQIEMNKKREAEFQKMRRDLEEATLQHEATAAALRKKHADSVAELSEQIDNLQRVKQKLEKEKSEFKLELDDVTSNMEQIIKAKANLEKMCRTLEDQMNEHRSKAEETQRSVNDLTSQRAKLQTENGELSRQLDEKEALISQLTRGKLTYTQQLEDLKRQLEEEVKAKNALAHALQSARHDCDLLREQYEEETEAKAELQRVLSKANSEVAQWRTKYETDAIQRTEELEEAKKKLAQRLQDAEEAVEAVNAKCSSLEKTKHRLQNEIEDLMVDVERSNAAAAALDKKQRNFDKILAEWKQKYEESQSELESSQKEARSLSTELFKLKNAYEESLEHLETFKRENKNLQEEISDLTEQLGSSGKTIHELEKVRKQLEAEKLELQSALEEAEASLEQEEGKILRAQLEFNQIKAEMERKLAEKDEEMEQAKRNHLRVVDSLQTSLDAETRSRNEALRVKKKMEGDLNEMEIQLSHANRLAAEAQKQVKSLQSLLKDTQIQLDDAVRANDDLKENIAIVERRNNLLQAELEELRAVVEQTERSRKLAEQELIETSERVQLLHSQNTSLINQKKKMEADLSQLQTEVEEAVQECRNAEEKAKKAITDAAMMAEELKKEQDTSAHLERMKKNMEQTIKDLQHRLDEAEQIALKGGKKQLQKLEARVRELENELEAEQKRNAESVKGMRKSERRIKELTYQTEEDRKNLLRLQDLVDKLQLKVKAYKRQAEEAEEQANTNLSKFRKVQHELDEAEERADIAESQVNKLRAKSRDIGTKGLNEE
Sequence of bovine cardiac myosin (P85100 whole entry partner): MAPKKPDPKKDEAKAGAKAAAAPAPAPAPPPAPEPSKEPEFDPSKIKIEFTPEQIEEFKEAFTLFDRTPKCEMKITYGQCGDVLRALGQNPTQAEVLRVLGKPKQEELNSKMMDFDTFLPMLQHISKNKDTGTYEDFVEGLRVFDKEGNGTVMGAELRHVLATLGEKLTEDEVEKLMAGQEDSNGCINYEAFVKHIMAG
Sequence of bovine cardiac myosin (Q3SZE5 whole entry partner): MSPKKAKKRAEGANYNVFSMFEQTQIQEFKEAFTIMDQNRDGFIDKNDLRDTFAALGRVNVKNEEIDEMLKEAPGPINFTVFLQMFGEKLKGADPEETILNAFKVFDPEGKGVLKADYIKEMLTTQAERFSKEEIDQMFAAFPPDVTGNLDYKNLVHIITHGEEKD

This experiment addresses bovine cardiac myosin (Bos taurus, UniProt Q9BE39). The experiment can be described thus: Myosin activation assay (PK/LDH-coupled ATPase, bovine cardiac myofibrils). It counts as biochemical. The conditions noted are these: AC20 = concentration at which total response is increased by twenty percent. The method, boiled down: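 Skinned bovine cardiac myofibrils (1 mg/mL) in PIPES/MgCl2 buffer pH 6.8 at free Ca2+ giving ~50% (pCa ~6) or <5% (pCa 10) activation, with 50 μM ATP and 3.3% DMSO. ATPase rate from NADH absorbance at 340 nm (PK/LDH coupling) over 15 min at ambient temperature. AC20/AC50 from a four-parameter fit of DMSO-normalised rates.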
Consider `Cn1nccc1S(=O)(=O)C(C)(F)C1CCN(C(=O)Nc2cccnc2)CC1` (centres unmarked) [Compound 227, 4-(1-fluoro-1-((1-methyl-1H-pyrazol-5-yl)sulfonyl)ethyl)-N-(pyridin-3-yl)piperidine-1-carboxamide], for which the “Myosin Activation (AC20)” value is reported as “+ (+ represents myosin activation value AC20 > 5 μM)”.

With `Cn1nccc1S(=O)(=O)C(C)(F)C1CCN(C(=O)Nc2ccc(F)nc2)CC1` (centres unmarked) [Compound 228, 4-(1-fluoro-1-((1-methyl-1H-pyrazol-5-yl)sulfonyl)ethyl)-N-(6-fluoropyridin-3-yl)piperidine-1-carboxamide], the “Myosin Activation (AC20)” value is recorded as “++ (++ represents myosin activation value AC20 from 2 μM-5 μM)”.

`Cn1nc(C(F)(F)F)cc1S(=O)(=O)[C@](C)(F)C1CCN(C(=O)Nc2ccon2)CC1` [Compound 229]: the “Myosin Activation (AC20)” value was “+ (+ represents myosin activation value AC20 > 5 μM)”. As for `Cn1nc(C(F)(F)F)cc1S(=O)(=O)[C@](C)(F)C1CCN(C(=O)Nc2ccnc(F)c2)CC1` [Compound 230, (S)-4-(1-fluoro-1-((1-methyl-3-(trifluoromethyl)-1H-pyrazol-5-yl)sulfonyl)ethyl)-N-(2-fluoropyridin-4-yl)piperidine-1-carboxamide], the entry is “+ (+ represents myosin activation value AC20 > 5 μM)”; as for `Cn1cc(S(=O)(=O)[C@](C)(F)C2CCN(C(=O)Nc3ccnc(F)c3)CC2)c(C(F)F)n1` [Compound 231, (S)-4-(1-((3-(difluoromethyl)-1-methyl-1H-pyrazol-4-yl)sulfonyl)-1-fluoroethyl)-N-(2-fluoropyridin-4-yl)piperidine-1-carboxamide], “+ (+ represents myosin activation value AC20 > 5 μM)”; as for `Cc1cc(NC(=O)N2CCC([C@](C)(F)S(=O)(=O)c3cc(C(F)(F)F)nn3C)CC2)ccn1` [Compound 232, (R)-4-(1-fluoro-1-((1-methyl-3-(trifluoromethyl)-1H-pyrazol-5-yl)sulfonyl)ethyl)-N-(2-methylpyridin-4-yl)piperidine-1-carboxamide], “+++ (+++ represents myosin activation value AC20 < 2 μM)”. As for `Cc1cc(NC(=O)N2CCC([C@](C)(F)S(=O)(=O)c3cn(C)nc3C(F)F)CC2)ccn1` [Compound 233, (R)-4-(1-((3-(difluoromethyl)-1-methyl-1H-pyrazol-4-yl)sulfonyl)-1-fluoroethyl)-N-(2-methylpyridin-4-yl)piperidine-1-carboxamide], the entry is “+++ (+++ represents myosin activation value AC20 < 2 μM)”; as for `CC(F)(C1CCN(C(=O)Nc2ccon2)CC1)S(=O)(=O)c1cccc(F)c1` (centres unmarked) [Compound 234, 4-(1-fluoro-1-((3-fluorophenyl)sulfonyl)ethyl)-N-(isoxazol-3-yl)piperidine-1-carboxamide], “+++ (+++ represents myosin activation value AC20 < 2 μM)”; as for `CC(F)(C1CCN(C(=O)Nc2cnoc2)CC1)S(=O)(=O)c1cccc(F)c1` (centres unmarked) [Compound 235, 4-(1-fluoro-1-((3-fluorophenyl)sulfonyl)ethyl)-N-(isoxazol-4-yl)piperidine-1-carboxamide], “+++ (+++ represents myosin activation value AC20 < 2 μM)”.

For the molecule `CC(F)(C1CCN(C(=O)Nc2ccnc(F)c2)CC1)S(=O)(=O)c1cccc(F)c1` (centres unmarked) [Compound 236, 4-(1-fluoro-1-((3-fluorophenyl)sulfonyl)ethyl)-N-(2-fluoropyridin-4-yl)piperidine-1-carboxamide], the “Myosin Activation (AC20)” value is on record as “++ (++ represents myosin activation value AC20 from 2 μM-5 μM)”. As for `CC(C)(C)OC(=O)n1cc(NC(=O)N2CCC(C(C)(F)S(=O)(=O)c3cccc(F)c3)CC2)cn1` (centres unmarked) [Compound 237, tert-butyl 4-(4-(1-fluoro-1-((3-fluorophenyl)sulfonyl)ethyl)piperidine-1-carboxamido)-1H-pyrazole-1-carboxylate], the entry is “+ (+ represents myosin activation value AC20 > 5 μM)”; as for `Cc1nocc1NC(=O)N1CCC(C(C)(F)S(=O)(=O)c2cccc(F)c2)CC1` (centres unmarked) [Compound 238, 4-(1-fluoro-1-((3-fluorophenyl)sulfonyl)ethyl)-N-(3-methylisoxazol-4-yl)piperidine-1-carboxamide], “+ (+ represents myosin activation value AC20 > 5 μM)”.

As to `CC(F)(C1CCN(C(=O)Nc2ccc(F)nc2)CC1)S(=O)(=O)c1cccc(F)c1` (centres unmarked) [Compound 239, 4-(1-fluoro-1-((3-fluorophenyl)sulfonyl)ethyl)-N-(6-fluoropyridin-3-yl)piperidine-1-carboxamide], the “Myosin Activation (AC20)” value is listed as “++ (++ represents myosin activation value AC20 from 2 μM-5 μM)”. Then `CC(F)(C1CCN(C(=O)Nc2ccc(F)nc2)CC1)S(=O)(=O)c1ccc(C#N)cc1` (centres unmarked) [Compound 240, 4-(1-((4-cyanophenyl)sulfonyl)-1-fluoroethyl)-N-(6-fluoropyridin-3-yl)piperidine-1-carboxamide], with “++ (++ represents myosin activation value AC20 from 2 μM-5 μM)”. Regarding `CC(F)(C1CCN(C(=O)Nc2ccc(F)nc2)CC1)S(=O)(=O)c1cccc(C#N)c1` (centres unmarked) [Compound 241, 4-(1-((3-cyanophenyl)sulfonyl)-1-fluoroethyl)-N-(6-fluoropyridin-3-yl)piperidine-1-carboxamide], the “Myosin Activation (AC20)” value is on record as “+ (+ represents myosin activation value AC20 > 5 μM)”. As for `CC(F)(C1CCN(C(=O)Nc2ccc(F)nc2)CC1)S(=O)(=O)c1ccc(C(F)(F)F)cc1` (centres unmarked) [Compound 242, 4-(1-fluoro-1-((4-(trifluoromethyl)phenyl)sulfonyl)ethyl)-N-(6-fluoropyridin-3-yl)piperidine-1-carboxamide], the entry is “++ (++ represents myosin activation value AC20 from 2 μM-5 μM)”; as for `CC(F)(C1CCN(C(=O)Nc2ccnc(F)c2)CC1)S(=O)(=O)c1ccc(C(F)(F)F)cc1` (centres unmarked) [Compound 243, 4-(1-fluoro-1-((4-(trifluoromethyl)phenyl)sulfonyl)ethyl)-N-(2-fluoropyridin-4-yl)piperidine-1-carboxamide], “++ (++ represents myosin activation value AC20 from 2 μM-5 μM)”; as for `Cn1cc(S(=O)(=O)C(C)(F)C2CCN(C(=O)Nc3ccc(F)nc3)CC2)c(C(F)(F)F)n1` (centres unmarked) [Compound 244, 4-(1-fluoro-1-((1-methyl-3-(trifluoromethyl)-1H-pyrazol-4-yl)sulfonyl)ethyl)-N-(6-fluoropyridin-3-yl)piperidine-1-carboxamide], “+ (+ represents myosin activation value AC20 > 5 μM)”. Take `Cn1cc(S(=O)(=O)C(C)(F)C2CCN(C(=O)Nc3ccnc(F)c3)CC2)c(C(F)(F)F)n1` (centres unmarked) [Compound 245, 4-(1-fluoro-1-((1-methyl-3-(trifluoromethyl)-1H-pyrazol-4-yl)sulfonyl)ethyl)-N-(2-fluoropyridin-4-yl)piperidine-1-carboxamide]: the “Myosin Activation (AC20)” value was “++ (++ represents myosin activation value AC20 from 2 μM-5 μM)”. As for `Cc1ccc(NC(=O)N2CCC(C(C)(F)S(=O)(=O)c3cn(C)nc3C(F)(F)F)CC2)cn1` (centres unmarked) [Compound 247, 4-(1-fluoro-1-((1-methyl-3-(trifluoromethyl)-1H-pyrazol-4-yl)sulfonyl)ethyl)-N-(6-methylpyridin-3-yl)piperidine-1-carboxamide], the entry is “+ (+ represents myosin activation value AC20 > 5 μM)”.
